From BindingDB's records for doi:10.1124/jpet.105.085217 (Imperial College, 2005)
pKi: −log10 of the molar value.

Molecular target: T1, Glucocorticoid receptor (Homo sapiens, UniProt P04150)
T1 sequence (P04150 whole entry): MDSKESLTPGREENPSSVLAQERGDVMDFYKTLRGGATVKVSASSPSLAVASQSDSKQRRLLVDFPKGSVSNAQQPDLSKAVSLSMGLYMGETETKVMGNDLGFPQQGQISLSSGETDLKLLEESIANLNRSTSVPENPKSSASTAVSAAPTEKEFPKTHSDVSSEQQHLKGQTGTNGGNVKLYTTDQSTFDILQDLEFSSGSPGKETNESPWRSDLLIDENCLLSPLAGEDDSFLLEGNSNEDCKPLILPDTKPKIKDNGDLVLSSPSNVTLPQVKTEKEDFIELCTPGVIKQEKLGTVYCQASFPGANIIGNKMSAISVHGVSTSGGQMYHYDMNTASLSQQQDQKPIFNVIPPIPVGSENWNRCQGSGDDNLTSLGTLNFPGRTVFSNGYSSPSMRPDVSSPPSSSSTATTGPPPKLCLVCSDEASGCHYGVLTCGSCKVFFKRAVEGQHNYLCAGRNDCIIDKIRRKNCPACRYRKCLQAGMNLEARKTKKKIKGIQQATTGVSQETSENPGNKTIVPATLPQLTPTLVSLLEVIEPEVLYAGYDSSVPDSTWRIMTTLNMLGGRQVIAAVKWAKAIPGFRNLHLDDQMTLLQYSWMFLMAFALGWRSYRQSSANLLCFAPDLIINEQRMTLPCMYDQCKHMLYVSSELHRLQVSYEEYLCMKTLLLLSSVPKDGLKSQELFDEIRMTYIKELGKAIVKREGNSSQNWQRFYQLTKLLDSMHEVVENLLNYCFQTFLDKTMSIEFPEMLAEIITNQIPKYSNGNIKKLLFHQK

C[C@]12C=CC(=O)C=C1CC[C@@H]1[C@@H]2[C@@H](O)C[C@@]2(C)[C@H]1C[C@H]1O[C@@H](C3CCCCC3)O[C@]12C(=O)CO [desisobutyryl-ciclesonide]
pKi: 9.51
